In patent US7939621B2, “Oligocarbonate molecular transporters” (International Business Machines Corporation, priority 2009, dated 2011):

Columns and labels:
Jurkat cells [1] = test: MTT toxicity assay; format: cell-based; conditions: Homo sapiens, 24 h with compound at 37° C., then 24 h fresh media
Experimental: Jurkat cells grown in 10% FBS in RPMI media 1640 (+ glutamine) were plated at 5-10×10^4 cells/mL on a 96-well microtiter plate in the same media. In a second 96-well plate, compound was serially diluted in triplicate over 20 wells in columns 2-11 and rows 1-3 and 5-7; typical dilutions spanned the concentration range of 400 μM to 20 nM. Columns 1 and 12 contained no cells and no compound, respectively. Rows 4 and 8 contained a serial dilution of colchicine as internal control; colchicine concentrations were generally much lower than compound concentrations in order to obtain an EC50 (half-maximal effective concentration).
Compounds were added to the plate containing cells and the cells were incubated at 37° C. for 24 h, at which point the plate was centrifuged, compound removed, and the cells resuspended in fresh media. […] Cells were incubated with MTT for 3 hours at 37° C., 150 μL solubilizing solution (10% triton X-100, 90% 0.1N HCl in isopropanol) was added to each well, and colorimetry data obtained on a plate reader.
Numerical data from plate reader was standardized using values from columns 1 and 12 and curve fitting was performed using Graph Pad Prism software to obtain an EC50 for each compound.

Jurkat cells [2] = test: Cellular uptake assay by flow cytometry; format: cell-based; conditions: 5, 12.5, 25 μM, pH 7.2 PBS, 5 min, 23° C.
Experimental: Dansyl-tagged oligomers and octaarginine control were brought up in pH 7.2 PBS buffer at 5 μM, 12.5 μM, and 25 μM concentrations. […] Cells were plated on a microtiter plate at 3.0×10^6 cells/mL with 200 μL/well. The plate was centrifuged (1300 rpm for 3 min), media removed, and cells resuspended in PBS buffer twice.
Compounds 6(a-c) and the r8 control at varying concentrations were incubated with the cells for 5 minutes at 23° C. The microtiter plates were centrifuged and the cells were isolated, washed with PBS and resuspended in PBS containing propidium iodide (3 μg/mL, 0.01%). The cells were analyzed using a fluorescent flow cytometer (Vantoo, Stanford University) equipped with a UV laser for excitation of the dansyl fluorophore, and cells stained with propidium iodide were excluded from the analysis. The data presented are the mean fluorescent signals for the 20,000 cells analyzed.

CN(C)c1cccc2c(S(=O)(=O)NCCO)cccc12 [Compound 4, 5-(dimethylamino)-N-(2-hydroxyethyl)naphthalene-1-sulfonamide, reference compound]
EC50 (Jurkat cells [1]): 311 µM
Cellular uptake into Jurkat cells (Jurkat cells [2]): does not enter Jurkat cells
